From patent US11407741B2, “Compounds and their use as selective inhibitors of caspase-2” (priority 2017, dated 2022)
Where a SMILES comes first, the peptide text is derived from it. The star is where a group is joined. X2 = O=C(O)C[C@H](N*)C(=O)COc1c(F)cccc1F; Quinaldoyl = O=C(c1ccc2ccccc2n1)*

Assays:
[1] = test system: HeLa cells; assay: Protection against vincristine-induced cell death, propidium iodide flow cytometry; format: cell-based, human; set-up: Index of cell death: key to the marks not given beside the values; conditions: 20 nM Vincristine for 48 hours, propidium iodide positive cells
Procedure: Human HeLa cells are used in this model. HeLa cells (cervical cancer cell line) were obtained from American Type Cell Collection (ATCC), and were cultured in Dulbecco's Modified Eagle Medium (DMEM, High Glucose, GlutaMAX™, Pyruvate) (Gibco, Life technologies), supplemented with 10% FCS and antibiotics (Gibco, Life technologies).
Human HeLa cells are treated with a solution of Vincristine (Sigma Aldrich) (diluted in water at 5 mM). Vincristine works partly by binding to the Tubulin protein, stopping the cell from separating its chromosomes during the metaphase; the cell then undergoes apoptosis through a caspase-dependent process.
Propidium iodide (PI) (Sigma Aldrich) is used to evaluate plasma membrane permeabilisation, a sign of cell death.
24 hours before pharmacological treatment, HeLa cells were plated into 24-well plates. […] Cells were exposed or not (control), to 20 nM Vincristine for 48 hours.
The content of each well is collected is added to PBS and then centrifuged (900 rpm; 5 min).
The pellet obtained is put into 300 μL of a medium comprising propidium iodide and incubated (37° C., 5% CO2) in the dark for 5 minutes and then subjected to flow cytometry analysis.
Fluorescence-Activated Cell Sorting was performed using a FACSCalibur cytometer (Becton Dickinson, San Jose, Calif.). For each sample, data from 5,000 Cells were registered and analyzed with the CellQuest Pro software (Becton Dickinson). Analysis included FSC (Forward Scatter/relating to the cells'size) and SSC (Side Scatter/relating to the cells' granularity) parameters together with FL-1 and FL-3 channel.
The percentage of propidium iodide positive cells gives an estimation of cell death.

[2] = biological target: T1, Caspase-2 (Homo sapiens, UniProt P42575); assay: Caspase-2 inhibition assay for irreversible inhibitors (kinact/KI, continuous method); format: biochemical
T1 construct: the Caspase-2 and Caspase-3 are human recombinant active enzymes; purchased Enzo Life ALX-201-057-U100
T1 sequence (P42575 170-325 limits assumed): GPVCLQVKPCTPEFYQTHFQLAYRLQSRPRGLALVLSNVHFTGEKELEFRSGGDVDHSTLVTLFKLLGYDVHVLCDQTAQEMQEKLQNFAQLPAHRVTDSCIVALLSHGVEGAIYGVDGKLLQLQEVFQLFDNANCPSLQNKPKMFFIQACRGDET
T1 sequence (P42575 348-452 limits assumed): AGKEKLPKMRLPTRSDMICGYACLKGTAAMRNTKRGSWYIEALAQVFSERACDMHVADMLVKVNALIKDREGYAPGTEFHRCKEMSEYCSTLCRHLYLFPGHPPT
Procedure: (§1) The efficiency of the comparative compound Δ2Me-TRP601, that is an already known group II Caspase inhibitor (inhibitor of Caspase-2, Caspase-3 and Caspase-7), has been assessed by a similar protocol described in Chauvier et al., 2011 Cell Death Dis 2011, 2:e203.
(§2) In this example, the Caspase-2 and Caspase-3 are human recombinant active enzymes that are respectively provided by Enzo Life® (ALX-201-057-U100) and R&D Systems® (707-C3-010/CF).
Caspase-2 is used at a final concentration of 0.1 nM in a “Caspase-2 buffer” containing 20 mM HEPES (pH 7.4), 5 mM DTT, 2 mM EDTA, 0.1% CHAPS and 800 mM succinate. Caspase-3 is used at a final concentration of 0.5 nM in a “Caspase-3 buffer” containing 20 mM HEPES (pH 7.4), 0.1% CHAPS, 5 mM DTT, and 2 mM EDTA.
(§3) The peptide substrates used for the enzymatic activity measurements are Ac-DEVD-AMC and Ac-VDVAD-AMC commercialized by EnzoLife® (respectively referenced ALX-260-031-M005 and ALX-260-060-M005). They are fluorogenic due to the presence of their AMC (7-amino-4-methylcoumarin) end group. The releasing of AMC enables to follow the enzymatic activity in fluorescence unit RFU over time in a 96-wells microplate.
The fluorescence values are measured at 37° C. with a spectrofluorometer with a microplate reader BMG FLUOstar OPTIMA. This apparatus is driven by the software Biolise® and is equipped with thermoelectric cooling device by Peltier effect. The mathematical analyses of the experimental data are done with the software Kaleidagraph®.
The inhibitory properties of the tested compounds are evaluated by the determination of the kinact/KI ratio regarding either Caspase-2 or Caspase-3 wherein: • kinact is the maximal inactivation rate constant, and • KI is the dissociation constant according to:
Said ratio is measured according to the continuous method (Allison R D. Curr Protoc Protein Sci. 2001 May; Chapter 3:Unit 3.5.; Chauvier et al., 2011 Cell Death Dis 2:e203; Tan et al., J Med Chem 2015, […]).
Briefly, Caspases activities were determined by monitoring the hydrolysis of fluorogenic substrates (λexc=355 nm, λem=460 nm) as a function of time, in the presence of untreated Caspases (control) or Caspases that had been incubated with a test compound, for 30 min minimum at 37° C. using a BMG Fluostar microplate reader (black 96-well microplates) and the initial velocity (V0) was determined from the linear portion of the progress curve.
Substrates and compounds were previously dissolved in DMSO at 10 mM, with the final solvent concentration kept at lower 4% (v/v). V0, relative velocities, KM and IC50 were determined from experimental data using Mars data Analysis 2.0 and Kaleidagraph softwares.
Inhibitor binding affinity (dissociation constant, KI) and first-order rate constant (k3) parameters were determined for Caspase-2 and Caspase-3 using the progress curve method. The ratio k3/KI was obtained by fitting the experimental data to the equations (F.U., fluorescence unit): […]
A continuous method of determination of the kinact/KI ratio was used for evaluating the inhibitory activity of the tested compounds against Caspase-2 and Caspase-3.
The reaction mixture is prepared by letting the enzyme and the buffer incubate at 37° C.
The tested inhibitory compounds are prepared at different concentrations (¼ IC50; ½ IC50; IC50; 2 IC50; 4 IC50) and put in the microplate.
Then the reaction mixture comprising the enzyme, the buffer and the substrate is rapidly added in the wells.
The activities of the enzyme are measured between 45 and 60 minutes.
The RFU (Relative Fluorescence Units)=f(times) curves are traced for each concentration of tested molecule according to the following equation: ((((−V0)*(exp(−kobs*m0)))+V0)/kobs*)+RFU0
in which: • V0 corresponds to the initial rate (RFU·s^−1) in the concentration of 0 of the tested inhibitory compound; • kobs is the inactivation rate constant; • RFU0 is the fluorescence value at t=0 min; and • m0 is the variable i.e. the inhibitor concentration.

[3] = biological target: T2, Caspase-3 (Homo sapiens, UniProt P42574); assay: Caspase-3 inhibition assay for irreversible inhibitors (kinact/KI, continuous method); format: biochemical; conditions: human recombinant Caspase-3 0.5 nM, 37° C.
T2 construct: the Caspase-2 and Caspase-3 are human recombinant active enzymes; purchased R&D Systems 707-C3-010/CF
T2 sequence (P42574 29-175 limits assumed): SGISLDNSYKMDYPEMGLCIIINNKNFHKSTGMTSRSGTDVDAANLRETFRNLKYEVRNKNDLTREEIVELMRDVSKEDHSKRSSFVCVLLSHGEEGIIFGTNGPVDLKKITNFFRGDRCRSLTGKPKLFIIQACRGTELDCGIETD
T2 sequence (P42574 176-277 limits assumed): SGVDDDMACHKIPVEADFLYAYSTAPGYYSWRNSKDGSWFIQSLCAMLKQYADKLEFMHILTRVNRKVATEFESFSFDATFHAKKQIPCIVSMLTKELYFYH
Procedure: as §1, §2
Caspase-2 is used at a final concentration of 0.1 nM in a “Caspase-2 buffer” containing 20 mM HEPES (pH 7.4), 5 mM DTT, 2 mM EDTA, 0.1% CHAPS and 800 mM succinate. […]
as §3, with “They are fluorogenic due to the presence of their AMC (7-amino-4-methylcoumarin) end group.” left out
The fluorescence values are measured at 37° C. with a spectrofluorometer with a microplate reader BMG FLUOstar OPTIMA. […]
The inhibitory properties of the tested compounds are evaluated by the determination of the kinact/KI ratio regarding either Caspase-2 or Caspase-3 wherein: • kinact is the maximal inactivation rate constant, and • KI is the dissociation constant according to: […]
The activities of the enzyme are measured between 45 and 60 minutes. […]

SMILES | Index of cell death [1] | Selectivity for Caspase 2 ([2]; comparison of kinact/KI ratios regarding caspase 2 and 3) | k3/KI Casp2 ([2]; human recombinant Caspase-2 0.1 nM, 37° C.) | Selectivity ratio (C2/C3) ([2]; ratio of k3/KI Casp2 to Casp3) | k3/KI Casp3 [3]
CC[C@]1(O)C[C@H]2CN(CCc3c([nH]c4ccccc34)[C@@](C(=O)OC)(c3cc4c(cc3OC)N(C=O)[C@H]3[C@@](O)(C(=O)OC)[C@H](OC(C)=O)[C@]5(CC)C=CCN6CC[C@]43[C@@H]65)C2)C1 [Vincristine alone, Vincristine, reference compound] | ++++ | – | – | – | –
CC(C)[C@H](NC(=O)c1ccc2ccccc2n1)C(=O)N[C@@H](CC(=O)O)C(=O)N[C@H](C(=O)N[C@@H](C)C(=O)N[C@@H](CC(=O)O)C(=O)COc1c(F)cccc1F)C(C)C [Δ2Me-TRP-601, reference compound] (Quinaldoyl-VDVA-X2) | – | no | 1 586 020 M^−1 · s^−1 | 0.98 | 1 613 405 M^−1 · s^−1
